system: Mouse embryonic stem cells; assay: Mouse ES cells keep pluripotency under differentiation medium (DM); format: cell-based; conditions: Embryonic stem cell, 144 h, measured by maintenance of GFP expression and colony morphology, differentiation medium (BM+0.3 μM RA or DMEM, 20% FBS), 3 + 3 days incubation
Text: Materials used for ES cell maintenance, and examples 4 & 5, infra, include: Oct4-GFP mES cells (feeder layer dependent cells); mES R1 cells (feeder layer independent cells); DMEM (GIBCO, 11965-084); Kouckout DMEM (KO DMEM) (GIBCO, 10829-018); DMEM/F12 (GIBCO, 11330-032); Fetal Bovine Serum (FBS) (GIBCO, 26140-079); Knockout Serum Replacer (KO-SR), (GIBCO, 10828-028); B-27 Serum-free Supplement (50X), (GIBCO017504-044); N-2 Supplement (100X) (GIBCO, 17502-048); LIF (10^6 units) (Chemicon, ESG1106); L-Glutamine (GIBCO, 25030-081); Non-essential amino acids (GIBCO, 11140-050); 2-Mercaptoethanol (1000X), (GIBCO, 21985-023); 0.05% Trypsin-EDTA (GIBCO, 25300-054); 0.1% gelatin solution (Stemcell tech., 07903); Basal medium (BM): KO DMEM, 15% KO-SR, 1X L-glutamine, 1X non-essential amino acid, 1×2-mercaptoethanol; and Growth medium (GM): Basal medium+10^3 unit LIF.
DM induced by retinoic acid (RA): BM+0.3 μM RA, DM induced by FBS: DMEM, 20% FBS. Ninety-six well plates are coated with 0.1% gelatin solution at 37° C. overnight. The gelatin solution is removed by aspiration. Mouse embryonic stem cells are plated on gelatin-coated plates at 10^4 cells/50 μl GM/well. After overnight incubation, the medium is changed to DM and 3 μM of a compound of the invention is added to each well. After 3 days incubation, the medium is replaced with fresh medium and compound. After a further 3 days, the cells are fixed and assayed with pluripotent markers expression and colony morphology. An effective concentration is measured by the maintenance of GFP expression and colony morphology. A list of effective concentrations for various compounds of the invention is disclosed in table 3, infra

| SMILES | minimal effective concentration |
| --- | --- |
| Cc1ccc(NC(=O)c2cccc(C(F)(F)F)c2)cc1N1Cc2cnc(Nc3cccc(NS(C)(=O)=O)c3)nc2N(C)C1=O [N-{3-[7-(3-Methanesulfonylamino-phenylamino)-1-methyl-2-oxo-1,4-dihydro-2H-pyrimido[4,5-d]pyrimidin-3-yl]-4-methyl-phenyl}-3-trifluoromethyl-benzamide] | 2 µM |
| CCn1nccc1Nc1ncc2c(n1)N(C)C(=O)N(c1cc(NC(=O)c3cccc(C(F)(F)F)c3)ccc1C)C2 [N-{3-[7-(2-Ethyl-2H-pyrazol-3-ylamino)-1-methyl-2-oxo-1,4-dihydro-2H-pyrimido[4,5-d]pyrimidin-3-yl]-4-methyl-phenyl}-3-trifluoromethyl-benzamide] | 2 µM |
| Cc1ccc(NC(=O)c2cccc(C(F)(F)F)c2)cc1N1Cc2cnc(Nc3cccc(O)c3)nc2N(C)C1=O [N-{3-[7-(3-Hydroxy-phenylamino)-1-methyl-2-oxo-1,4-dihydro-2H-pyrimido[4,5-d]pyrimidin-3-yl]-4-methyl-phenyl}-3-trifluoromethyl-benzamide] | 1 µM |
| Cc1cc(Nc2ncc3c(n2)N(C)C(=O)N(c2cc(NC(=O)c4cccc(C(F)(F)F)c4)ccc2C)C3)n(C)n1 [N-{3-[7-(2,5-Dimethyl-2H-pyrazol-3-ylamino)-1-methyl-2-oxo-1,4-dihydro-2H-pyrimido[4,5-d]pyrimidin-3-yl]-4-methyl-phenyl}-3-trifluoromethyl-benzamide] | 1 µM |
| CCNc1ncc2c(n1)N(C)C(=O)N(c1cc(NC(=O)c3cccc(C(F)(F)F)c3)ccc1C)C2 [N-[3-(7-Ethylamino-1-methyl-2-oxo-1,4-dihydro-2H-pyrimido[4,5-d]pyrimidin-3-yl)-4-methyl-phenyl]-3-trifluoromethyl-benzamide] | 10 µM |
| Cc1ccc(NC(=O)c2cccc(C(F)(F)F)c2)cc1N1Cc2cnc(Nc3cccc(N)c3)nc2N(C)C1=O [N-{3-[7-(3-Amino-phenylamino)-1-methyl-2-oxo-1,4-dihydro-2H-pyrimido[4,5-d]pyrimidin-3-yl]-4-methyl-phenyl}-3-trifluoromethyl-benzamide] | 2 µM |
| Cc1ccc(NC(=O)c2cccc(C(F)(F)F)c2)cc1N1Cc2cnc(Nc3ccnn3C)nc2N(C)C1=O [N-{4-Methyl-3-[1-methyl-7-(2-methyl-2H-pyrazol-3-ylamino)-2-oxo-1,4-dihydro-2H-pyrimido[4,5-d]pyrimidin-3-yl]-phenyl}-3-trifluoromethyl-benzamide] | 1 µM |
| CNc1ncc2c(n1)N(C)C(=O)N(c1cc(NC(=O)c3cccc(C(F)(F)F)c3)ccc1C)C2 [N-[4-Methyl-3-(1-methyl-7-methylamino-2-oxo-1,4-dihydro-2H-pyrimido[4,5-d]pyrimidin-3-yl)-phenyl]-3-trifluoromethyl-benzamide] | 3 µM |
| Cc1cc(Nc2ncc3c(n2)N(C)C(=O)N(c2cc(NC(=O)c4cccc(C(F)(F)F)c4)ccc2C)C3)cc(C)n1 [N-{3-[7-(2,6-Dimethyl-pyridin-4-ylamino)-1-methyl-2-oxo-1,4-dihydro-2H-pyrimido[4,5-d]pyrimidin-3-yl]-4-methyl-phenyl}-3-trifluoromethyl-benzamide] | 5 µM |

Reference: patent US20100234400A1, “COMPOUNDS THAT MAINTAIN PLURIPOTENCY OF EMBRYONIC STEM CELLS” (IRM LLC, priority 2005, published 2010)
